Data: ChEMBL document CHEMBL1201862, “PubChem BioAssay data set” (2004)
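How tested: cells in 96-well plates exposed to compound for 48 hours at five concentrations. The concentration for 50% growth inhibition is given as GI50.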 Calls of active or inactive are those of the source. Rule as the data show it: active = GI50 up to about 1.1 µM and inactive = higher.

How the values were obtained:
Assay in all cases: inhibition of tumour cell growth, NCI panel, 48 h
786-0 = tested on: 786-0
A498 = tested on: A498
HCC 2998 = tested on: HCC 2998
HCT-116 = tested on: HCT-116
HL-60 = tested on: HL-60
MOLT-4 = tested on: MOLT-4
NCI-H23 = tested on: NCI-H23
OVCAR-8 = tested on: OVCAR-8
RPMI-8226 = tested on: RPMI-8226
RXF 393 = tested on: RXF 393
SF-295 = tested on: SF-295
SK-OV-3 = tested on: SK-OV-3
SN12C = tested on: SN12C
SNB-19 = tested on: SNB-19
SNB-75 = tested on: SNB-75
TK-10 = tested on: TK-10
U-251 = tested on: U-251
UO-31 = tested on: UO-31
EKVX = tested on: EKVX

Measured: GI50

C[C@]12CC[C@H](OC(=O)Cc3ccc(N(CCCl)CCCl)cc3)CC1CC[C@@H]1C2CC[C@]2(C)NC(=O)CCC12 (some centres not stated)
inactive: 786-0 11.5 µM | A498 18.9 µM | HCC 2998 18.7 µM | HCT-116 5.11 µM | HL-60 2.48 µM | MOLT-4 3.08 µM | NCI-H23 11.8 µM | OVCAR-8 > 10 µM | RPMI-8226 4.16 µM | RXF 393 7.74 µM | SF-295 11.8 µM | SK-OV-3 17 µM | SN12C 5.38 µM | SNB-19 13 µM | SNB-75 10.1 µM | TK-10 19.9 µM | U-251 11.2 µM | UO-31 29.3 µM

CC1=C(C(N)=O)C(c2ccncc2)C(C#N)C(=O)N1 (configuration not stated)
inactive: 786-0 > 100 µM | A498 > 100 µM | EKVX > 100 µM | HCC 2998 > 100 µM | HCT-116 > 100 µM | HL-60 > 100 µM | MOLT-4 > 100 µM | NCI-H23 > 100 µM | RPMI-8226 > 100 µM | RXF 393 > 100 µM | SF-295 > 100 µM | SK-OV-3 > 100 µM | SNB-19 > 100 µM | SNB-75 > 100 µM | TK-10 > 100 µM | U-251 > 100 µM | UO-31 > 100 µM

O=C(/C=C/c1ccccc1O)c1ccccc1O
inactive: 786-0 > 100 µM | A498 > 100 µM | EKVX > 100 µM | HCC 2998 > 100 µM | HCT-116 78 µM | HL-60 > 100 µM | MOLT-4 18.7 µM | NCI-H23 76.2 µM | OVCAR-8 > 100 µM | RPMI-8226 40 µM | RXF 393 > 100 µM | SF-295 51.6 µM | SK-OV-3 > 100 µM | SN12C > 100 µM | SNB-19 > 100 µM | SNB-75 > 100 µM | TK-10 > 100 µM | U-251 > 100 µM | UO-31 > 100 µM

CCCCCCCCCCCCCC(=O)OCC1OC(n2cc(F)c(=O)[nH]c2=O)C(N)C(OC(=O)CCCCCCCCCCCCC)C1O (configuration not stated)
inactive: 786-0 > 100 µM | A498 > 100 µM | EKVX > 100 µM | HCC 2998 > 100 µM | HCT-116 > 100 µM | HL-60 > 100 µM | MOLT-4 > 100 µM | NCI-H23 > 100 µM | OVCAR-8 > 100 µM | RPMI-8226 > 100 µM | RXF 393 > 100 µM | SF-295 > 100 µM | SK-OV-3 > 100 µM | SN12C > 100 µM | SNB-19 > 100 µM | SNB-75 > 100 µM | TK-10 > 100 µM | U-251 > 100 µM | UO-31 > 100 µM

COc1ccc(C(=O)C#Cc2cnc(O)nc2O)cc1
inactive: 786-0 9.06 µM | A498 23.7 µM | EKVX 19.4 µM | HCC 2998 18.7 µM | HCT-116 6.03 µM | HL-60 5.21 µM | MOLT-4 2.34 µM | NCI-H23 14.6 µM | OVCAR-8 8.81 µM | RPMI-8226 13.3 µM | RXF 393 5.47 µM | SF-295 33 µM | SK-OV-3 52.8 µM | SN12C 6.32 µM | SNB-19 17.5 µM | SNB-75 23.8 µM | TK-10 9.31 µM | U-251 9.29 µM | UO-31 17.2 µM

O=C(O)CCCSC(=O)Nc1ccc(/N=N/c2ccccc2)cc1
inactive: 786-0 > 100 µM | A498 > 100 µM | EKVX > 100 µM | HCC 2998 > 100 µM | HCT-116 > 100 µM | MOLT-4 9.68 µM | NCI-H23 > 100 µM | OVCAR-8 > 100 µM | RPMI-8226 > 100 µM | RXF 393 > 100 µM | SF-295 > 100 µM | SN12C > 100 µM | SNB-19 > 100 µM | TK-10 > 100 µM | U-251 > 100 µM | UO-31 > 100 µM

CCCCCCCC(CC(=O)NC(CO)C(=O)NC(CO)CC(C)C)OC(=O)CC(CCCCCCC)OC(=O)CC(CCCCCCC)OC1OC(C)C(O)C(OC2OC(C)C(O)C(O)C2OC(C)=O)C1O (configuration not stated)
inactive: 786-0 5 µM | A498 15.8 µM | EKVX 14.3 µM | HCC 2998 12.5 µM | HCT-116 3.94 µM | HL-60 3 µM | MOLT-4 2.54 µM | NCI-H23 7.8 µM | OVCAR-8 7.35 µM | RXF 393 2.14 µM | SF-295 10 µM | SK-OV-3 16.6 µM | SN12C 4.47 µM | SNB-19 8.26 µM | SNB-75 4.29 µM | TK-10 13.3 µM | U-251 7.03 µM | UO-31 16.9 µM

CC(C)(CN1CCCCC1)C(=O)/C=C/c1ccc(Br)cc1
inactive: 786-0 2.15 µM | A498 2.58 µM | EKVX 2.12 µM | HCC 2998 16.5 µM | HCT-116 2.77 µM | HL-60 2.4 µM | MOLT-4 2.28 µM | NCI-H23 2.77 µM | OVCAR-8 2.39 µM | RPMI-8226 3.07 µM | RXF 393 1.35 µM | SF-295 5.09 µM | SK-OV-3 3.04 µM | SN12C 2.57 µM | SNB-19 2.01 µM | SNB-75 5.89 µM | TK-10 3.13 µM | U-251 2.65 µM

Cc1cc(C)c2[s+]snc2c1
inactive: 786-0 > 100 µM | A498 37.7 µM | EKVX > 100 µM | HCC 2998 > 100 µM | HCT-116 39.3 µM | HL-60 18.3 µM | MOLT-4 33.9 µM | NCI-H23 54 µM | OVCAR-8 33.7 µM | RXF 393 37.4 µM | SF-295 > 100 µM | SK-OV-3 > 100 µM | SN12C 47.1 µM | SNB-19 > 100 µM | SNB-75 > 100 µM | TK-10 > 100 µM | U-251 48.9 µM | UO-31 39.5 µM

CC1(C)OC2C(CCP(=O)(O)O)OC(c3nc(C(N)=O)cs3)C2O1 (configuration not stated)
inactive: 786-0 > 100 µM | A498 > 100 µM | EKVX > 100 µM | HCC 2998 > 100 µM | HCT-116 > 100 µM | MOLT-4 > 100 µM | NCI-H23 > 100 µM | OVCAR-8 > 100 µM | RPMI-8226 > 100 µM | RXF 393 > 100 µM | SK-OV-3 > 100 µM | SN12C > 100 µM | SNB-19 > 100 µM | SNB-75 > 100 µM | TK-10 > 100 µM | U-251 > 100 µM | UO-31 > 100 µM

COc1ccc(NC(=O)/C(Cc2nc3ccccc3nc2O)=N\O)c(OC)c1
inactive: 786-0 > 100 µM | A498 > 100 µM | EKVX > 100 µM | HCC 2998 > 100 µM | HCT-116 > 100 µM | HL-60 > 100 µM | NCI-H23 > 100 µM | OVCAR-8 > 100 µM | RPMI-8226 > 100 µM | RXF 393 > 100 µM | SF-295 > 100 µM | SK-OV-3 > 100 µM | SN12C > 100 µM | SNB-19 > 100 µM | SNB-75 > 100 µM | TK-10 > 100 µM | U-251 > 100 µM | UO-31 > 100 µM
